Data as given in patent US10959432B2, “Microbiocidal oxadiazole derivatives” (Syngenta Participations AG, priority 2016, dated 2021).

Key:
[1] = tested on: Puccinia recondita f. sp. tritici; assay: Fungicidal activity against Puccinia recondita f. sp. tritici / wheat / leaf disc preventative (brown rust); type: in vivo; conditions: foliar, 200 ppm in the applied formulation, wheat leaf segments cv. Kanzler, preventative (inoculated 1 day after application), assessed 7 to 9 days after application, read-out: disease control compared to untreated control leaf disks
Summary of the method: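 Preventative leaf-segment test: compound sprayed at 200 ppm onto wheat (cv. Kanzler) segments, brown rust spores applied 1 day after. Kept at 19C and 75% rh under 12 h light/dark cycles; disease control versus untreated check read 7 to 9 days post-application.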

[2] = tested on: Puccinia recondita f. sp. tritici; assay: Fungicidal activity against Puccinia recondita f. sp. tritici / wheat / leaf disc curative (brown rust); type: in vivo; conditions: foliar, 200 ppm in the applied formulation, wheat leaf segments cv. Kanzler, curative (applied 1 day after inoculation), assessed 6 to 8 days after application, read-out: disease control compared to untreated control leaf disks
Summary of the method: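 Curative test: compound, diluted from DMSO stock into water, applied one day after spore inoculation of wheat (cv. Kanzler) leaf segments kept on agar in darkness at 19° C. and 75% RH. Climate-cabinet incubation (19° C., 75% RH, 12 h photoperiod); disease control relative to untreated read 6–8 days post-application.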

[3] = tested on: Phakopsora pachyrhizi; assay: Fungicidal activity against Phakopsora pachyrhizi / soybean / leaf disc preventative (Asian soybean rust); type: in vivo; conditions: foliar, 200 ppm in the applied formulation, soybean leaf disks, preventative (inoculated one day after application), assessed 12 to 14 days after application, read-out: disease control compared to untreated control leaf disks
Summary of the method: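 Preventative test: compound applied to soybean leaf discs a day before spore inoculation of the lower surface. Discs kept at 20° C and 75% rh, first 24-36 h in darkness, then under 12 h light/day; disease control relative to untreated discs rated 12 to 14 days post-application.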

[4] = tested on: Glomerella laqenarium (Colletotrichum lagenarium); assay: Fungicidal activity against Glomerella lagenarium (Colletotrichum lagenarium) liquid culture / cucumber / preventative (anthracnose); type: cell-based; conditions: Colletotrichum orbiculare; 20 ppm in the applied formulation; liquid culture in PDB, 24° C., 3 to 4 days after application; read-out: disease control compared to untreated control (inhibition of growth measured photometrically)
Summary of the method: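 Test compound, applied from DMSO solution, is combined with PDB containing conidia taken from cryogenic storage. After 3–4 days at 24 °C, growth is measured photometrically and antifungal activity expressed as percent relative to untreated control.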

[5] = tested on: Uromyces viciae-fabae; assay: Fungicidal activity against Uromyces viciae-fabae / field bean / leaf disc preventative (faba-bean rust); type: in vivo; conditions: foliar, 288 h, 100 ppm in the applied formulation, field bean leaf discs, preventative (inoculated two hours after application), assessed 12 days after application, read-out: disease control compared to untreated control leaf discs
Summary of the method: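 Field bean leaf discs on water agar treated with 10 μl compound in acetone plus spreader, then spray-inoculated on the lower surface with Uromyces viciae-fabae spores 2 h later. Incubation at 22 °C, 18 h day, 70% RH; percent disease control versus untreated scored 12 days after application, compounds at 100 ppm.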

O=C(NCC1COCCO1)c1ccc(-c2noc(C(F)(F)F)n2)cc1 (centres unmarked) [Compound 1a.2, N-(1,4-dioxan-2-ylmethyl)-4-[5-(trifluoromethyl)-1,2,4-oxadiazol-3-yl]benzamide]
≥ 80%: pest or weed control at 200 ppm [1] | pest or weed control at 200 ppm [2] | pest or weed control at 200 ppm [3] | inhibition at 20 ppm [4] | pest or weed control at 100 ppm [5]

CON1CCC(N(C)C(=O)c2ccc(-c3noc(C(F)(F)F)n3)cc2)CC1 [Compound 1a.3, N-(1-methoxy-4-piperidyl)-N-methyl-4-[5-(trifluoromethyl)-1,2,4-oxadiazol-3-yl]benzamide]
≥ 80%: pest or weed control at 200 ppm [1] | pest or weed control at 200 ppm [2] | inhibition at 20 ppm [4] | pest or weed control at 100 ppm [5]

CCN(C(=O)c1ccc(-c2noc(C(F)(F)F)n2)cc1)C1CCN(OC)CC1 [Compound 1a.4, N-ethyl-N-(1-methoxy-4-piperidyl)-4-[5-(trifluoromethyl)-1,2,4-oxadiazol-3-yl]benzamide]
≥ 80%: pest or weed control at 200 ppm [1] | pest or weed control at 200 ppm [2] | inhibition at 20 ppm [4] | pest or weed control at 100 ppm [5]

CCCN(C(=O)c1ccc(-c2noc(C(F)(F)F)n2)cc1)C1CCN(OC)CC1 [Compound 1a.5, N-(1-methoxy-4-piperidyl)-N-propyl-4-[5-(trifluoromethyl)-1,2,4-oxadiazol-3-yl]benzamide]
≥ 80%: pest or weed control at 200 ppm [2] | inhibition at 20 ppm [4] | pest or weed control at 100 ppm [5]

O=C(NC1CCCSC1)c1ccc(-c2noc(C(F)(F)F)n2)cc1F (centres unmarked) [Compound 1b.5, 2-fluoro-N-tetrahydrothiopyran-3-yl-4-[5-(trifluoromethyl)-1,2,4-oxadiazol-3-yl]benzamide]
≥ 80%: pest or weed control at 200 ppm [1] | pest or weed control at 200 ppm [2] | pest or weed control at 200 ppm [3] | inhibition at 20 ppm [4] | pest or weed control at 100 ppm [5]

CN(CC1COCCO1)C(=O)c1ccc(-c2noc(C(F)(F)F)n2)cc1F (centres unmarked) [Compound 1b.9, N-(1,4-dioxan-2-ylmethyl)-2-fluoro-N-methyl-4-[5-(trifluoromethyl)-1,2,4-oxadiazol-3-yl]benzamide]
≥ 80%: pest or weed control at 200 ppm [1] | pest or weed control at 200 ppm [2] | pest or weed control at 200 ppm [3] | inhibition at 20 ppm [4] | pest or weed control at 100 ppm [5]

O=C(NCC1CCC1)c1ccc(-c2noc(C(F)(F)F)n2)cc1 [Compound 2a.3, N-(cyclobutylmethyl)-4-[5-(trifluoromethyl)-1,2,4-oxadiazol-3-yl]benzamide]
≥ 80%: pest or weed control at 200 ppm [1] | pest or weed control at 200 ppm [2] | pest or weed control at 200 ppm [3] | pest or weed control at 100 ppm [5]

CC1(NC(=O)c2ccc(-c3noc(C(F)(F)F)n3)cc2)CCC1 [Compound 2a.4, N-(1-methylcyclobutyl)-4-[5-(trifluoromethyl)-1,2,4-oxadiazol-3-yl]benzamide]
≥ 80%: pest or weed control at 200 ppm [1] | pest or weed control at 200 ppm [2] | pest or weed control at 200 ppm [3] | pest or weed control at 100 ppm [5]

O=C(NC1CCCC1(F)F)c1ccc(-c2noc(C(F)(F)F)n2)cc1 (centres unmarked) [Compound 2a.9, N-(2,2-difluorocyclopentyl)-4-[5-(trifluoromethyl)-1,2,4-oxadiazol-3-yl]benzamide]
≥ 80%: pest or weed control at 200 ppm [1] | pest or weed control at 200 ppm [2] | pest or weed control at 200 ppm [3] | inhibition at 20 ppm [4] | pest or weed control at 100 ppm [5]

O=C(NC1CCC1)c1ccc(-c2noc(C(F)(F)F)n2)cc1F [Compound 2b.3, N-cyclobutyl-2-fluoro-4-[5-(trifluoromethyl)-1,2,4-oxadiazol-3-yl]benzamide]
≥ 80%: pest or weed control at 200 ppm [1] | pest or weed control at 200 ppm [2] | pest or weed control at 200 ppm [3] | inhibition at 20 ppm [4] | pest or weed control at 100 ppm [5]

O=C(NCC1CC(F)(F)C1(F)F)c1ccc(-c2noc(C(F)(F)F)n2)cc1F (centres unmarked) [Compound 2b.4, 2-fluoro-N-[(2,2,3,3-tetrafluorocyclobuty)methyl]-4-[5-(trifluoromethyl)-1,2,4-oxadiazol-3-yl]benzamide]
≥ 80%: pest or weed control at 200 ppm [1] | pest or weed control at 200 ppm [2] | pest or weed control at 200 ppm [3] | inhibition at 20 ppm [4] | pest or weed control at 100 ppm [5]

CC(NC(=O)c1ccc(-c2noc(C(F)(F)F)n2)cc1F)C1CC1 (centres unmarked) [Compound 2b.5, N-(1-cyclopropylethyl)-2-fluoro-4-[5-(trifluoromethyl)-1,2,4-oxadiazol-3-yl]benzamide]
≥ 80%: pest or weed control at 200 ppm [1] | pest or weed control at 200 ppm [2] | pest or weed control at 200 ppm [3] | inhibition at 20 ppm [4] | pest or weed control at 100 ppm [5]

O=C(NCC1CCC1)c1ccc(-c2noc(C(F)(F)F)n2)cc1F [Compound 2b.11, N-(cyclobutylmethyl)-2-fluoro-4-[5-(trifluoromethyl)-1,2,4-oxadiazol-3-yl]benzamide]
≥ 80%: pest or weed control at 200 ppm [1] | pest or weed control at 200 ppm [2] | pest or weed control at 200 ppm [3] | pest or weed control at 100 ppm [5]

CC1(NC(=O)c2ccc(-c3noc(C(F)(F)F)n3)cc2F)CCC1 [Compound 2b.12, 2-fluoro-N-(1-methylcyclobutyl)-4-[5-(trifluoromethyl)-1,2,4-oxadiazol-3-yl]benzamide]
≥ 80%: pest or weed control at 200 ppm [1] | pest or weed control at 200 ppm [2] | pest or weed control at 200 ppm [3] | pest or weed control at 100 ppm [5]

O=C(NC1CCCC1(F)F)c1ccc(-c2noc(C(F)(F)F)n2)cc1F (centres unmarked) [Compound 2b.17, N-(2,2-difluorocyclopentyl)-2-fluoro-4-[5-(trifluoromethyl)-1,2,4-oxadiazol-3-yl]benzamide]
≥ 80%: pest or weed control at 200 ppm [1] | pest or weed control at 200 ppm [2] | pest or weed control at 200 ppm [3] | pest or weed control at 100 ppm [5]

CN(CC(=O)NC(C)(C)C)C(=O)c1ccc(-c2noc(C(F)(F)F)n2)cc1 [Compound 3a.3, N-[2-(tert-butylamino)-2-oxo-ethyl]-N-methyl-4-[5-(trifluoromethyl)-1,2,4-oxadiazol-3-yl]benzamide]
≥ 80%: pest or weed control at 200 ppm [1] | pest or weed control at 200 ppm [2] | pest or weed control at 200 ppm [3] | inhibition at 20 ppm [4] | pest or weed control at 100 ppm [5]

COc1ccc(CNC(=O)c2ccc(-c3noc(C(F)(F)F)n3)cc2)c(OC)c1 [Compound 4a.13, N-[(2,4-dimethoxyphenyl)methyl]-4-[5-(trifluoromethyl)-1,2,4-oxadiazol-3-yl]benzamide]
≥ 80%: pest or weed control at 200 ppm [1] | pest or weed control at 200 ppm [2] | pest or weed control at 200 ppm [3] | inhibition at 20 ppm [4] | pest or weed control at 100 ppm [5]

CN(Cc1ccccc1F)C(=O)c1ccc(-c2noc(C(F)(F)F)n2)cc1F [Compound 4b.9, 2-fluoro-N-[(2-fluorophenyl)methyl]-N-methyl-4-[5-(trifluoromethyl)-1,2,4-oxadiazol-3-yl]benzamide]
≥ 80%: pest or weed control at 200 ppm [1] | pest or weed control at 200 ppm [2] | pest or weed control at 200 ppm [3] | inhibition at 20 ppm [4] | pest or weed control at 100 ppm [5]

CN(Cc1ccc(Cl)nc1)C(=O)c1ccc(-c2noc(C(F)(F)F)n2)cc1 [Compound 5a.9, N-[(6-chloro-3-pyridyl)methyl]-N-methyl-4-[5-(trifluoromethyl)-1,2,4-oxadiazol-3-yl]benzamide]
≥ 80%: pest or weed control at 200 ppm [1] | pest or weed control at 200 ppm [2] | pest or weed control at 200 ppm [3] | inhibition at 20 ppm [4] | pest or weed control at 100 ppm [5]

O=C(NCc1nccs1)c1ccc(-c2noc(C(F)(F)F)n2)cc1 [Compound 5a.10, N-(thiazol-2-ylmethyl)-4-[5-(trifluoromethyl)-1,2,4-oxadiazol-3-yl]benzamide]
≥ 80%: pest or weed control at 200 ppm [1] | pest or weed control at 200 ppm [2] | pest or weed control at 200 ppm [3] | inhibition at 20 ppm [4] | pest or weed control at 100 ppm [5]

Cc1ccsc1CN(C)C(=O)c1ccc(-c2noc(C(F)(F)F)n2)cc1F [Compound 5b.3, 2-fluoro-N-methyl-N-[(3-methyl-2-thienyl)methyl]-4-[5-(trifluoromethyl)-1,2,4-oxadiazol-3-yl]benzamide]
≥ 80%: pest or weed control at 200 ppm [2] | pest or weed control at 200 ppm [3] | inhibition at 20 ppm [4] | pest or weed control at 100 ppm [5]
